What was measured:
Vero cells = test: Cytotoxicity assay (MTT) in Vero cells; assay type: cell-based; settings: incubation with the compound only
Procedure: (§1) Vero cells were seeded in 96-well plates in 24 h before the assay. On the assay day, the cells were washed with saline and tested compounds in appropriate concentrations (300–3 μg/mL) in MEM without FBS were added to cells. No compounds were added to virus control wells. The plates were incubated for 1 h at 37 °C at 5% CO2. The cells were then infected with CVB3 Nancy (m.o.i range of 1–0.001) and incubated for 72 h at 37 °C at 5% CO2. No virus was added to the cytotoxicity control wells. Cell viability was then assessed using an MTT test with the following procedure. The cells were washed with saline, and a solution of 3-(4,5-dimethylthiazolyl-2) 2,5-diphenyltetrazolium bromide (ICN Biochemicals Inc., Aurora, OH, USA) ([…]) in MEM was added to the wells (100 µL per well). After 2 h of incubation at 37 °C in 5% CO2, the supernatant from wells was discarded, and the formazan residue was dissolved in DMSO (100 µL per well). The optical density of cells was then measured on a Multiskan multifunctional reader (Thermo Fisher Scientific, Shanghai, China) at a wavelength of 540 nm.
(§2) The microtetrazolium test (MTT) was used to study the cytotoxicity of the compounds. The permissive cell line Vero was seeded in 96-well plates in Eagles minimal essential medium (MEM) supplemented with 10% FBS. After 24 h, the media were removed, and the wells were washed with saline. Compounds were dissolved in DMSO, and a series of two-fold dilutions of each compound in MEM without FBS were prepared and added to the cells in triplicates. […] The MTT was then performed as described above. Next, the optical density of cells was measured on a Multiskan multifunctional reader (Thermo Fisher Scientific, Shanghai, China) at a wavelength of 540 nm and plotted against the concentration of the compounds to generate the dose–response curve. The 50% cytotoxic dose (CC50) of each compound (i.e., the compound concentration that causes the death of 50% of cells in a culture, or decreases the optical density twice, as compared to the control wells) was calculated using a four-parameter logistic nonlinear regression model (GraphPad Prism 6.01).

[1] = Cytotoxicity assay (MTT) in Vero cells; assay type: cell-based; settings: African green monkey; for CC50 at 24 h: 24 h incubation with the compound only; for CC50 at 72 h: 72 h incubation with the compound only
Procedure: as §1, §2

CVB3 Nancy [2] = test: Cytoprotection assay (MTT) in Vero cells infected with CVB3 Nancy; assay type: cell-based, Coxsackievirus B3; settings: for EC50: Enterovirus B, Vero cells infected with CVB3 Nancy at m.o.i. 0.001, 72 h, MTT, read-out: EC50 (50% cytoprotective concentration); for SI (selectivity index, ratio CC50/IC50): cytoprotection assay, CC50 72 h / EC50
Procedure: as §1
The cytoprotective activity of compounds was considered to be their ability to increase the values of OD compared to control wells (using only a virus, without drugs). Based on the results obtained, the values of IC50, i.e., the concentration of compounds that result in 50% cells protection were calculated for m.o.i. 0.001 using GraphPad Prism 6.01 software.

[3] = tested on: Coxsackievirus B3 (Nancy); test: Viral yield reduction assay in Vero cells; assay type: cell-based; settings: for IC50: Enterovirus B, B3 / CVB3, viral yield reduction, Vero cells, CVB3 Nancy at m.o.i. 0.01, 24 h, read-out: IC50 (50% virus-inhibiting concentration); for SI (selectivity index, ratio CC50/IC50): viral yield reduction assay, CC50 24 h / IC50
Procedure: Coxsackievirus B3 (CVB3, strain Nancy) was obtained from the collection of viruses of the Pasteur Institute (St. Petersburg, Russia). The permissive cell line Vero (ATCC #CCL-81) was used in the study. Infectious titers (in a 50%-tissue culture infection dose, TCID50) were determined in Vero cells for CVB3 by endpoint dilution assay using the following procedure. Permissive cells were seeded into 96-wells plates in Eagles minimal essential medium (MEM) supplemented with 5% fetal bovine serum (FBS). After 24 h, the medium was aspirated, the wells were washed with saline, fresh MEM without FBS was added to the wells and the cells were infected with serial tenfold dilutions of virus stocks (100 µL per well, 4 wells for each dilution). The plates were incubated at +37 °C in 5% CO2 and observed daily for cytopathic effect (CPE). After 72 h the viral titer was calculated in TCID50 using the method of Spearmen-Carber.
The antiviral activity of the compounds was evaluated using viral yield reduction assay. The respective permissive cell line Vero was seeded in MEM supplemented with 5% FBS in 24-well plates. When the cell confluence reached 100%, the compounds tested were dissolved in DMSO, and a series of three-fold dilutions of each compound in MEM without FBS was added to the cells, and incubated at 37 °C in 5% CO2. After 1 h, the media were discarded; equal volumes of fresh serial dilutions of each compound and viral suspension in MEM without FBS at […] were added. In control wells, only MEM without FBS was added. No compounds were added in the virus control wells. The plates were incubated at 4 °C for 1 h. The unbound virus was then washed away and, again, three-fold dilutions of each compound (the final concentration 50–0.6 µg/mL) in MEM without FBS were added to the wells. After 24 h of incubation at 37 °C in 5% CO2, the infectious titer of viral progeny (in TCID50) for each compound concentration, cell control, and virus control wells were determined in permissive cell lines by endpoint dilution assay as described above.
The titer of virus progeny was plotted against log concentration of the compounds tested to generate the dose–response curve. The 50% inhibition concentration (IC50) of each compound tested (i.e., the compound concentration that decreases the infectious viral progeny titer twice, as compared to the control wells) was calculated using a four-parameter logistic nonlinear regression model (GraphPad Prism 6.01).

CVB3 Nancy [4] = test: Thermostability assay (capsid binding, heat inactivation of virus); set-up: species or system Coxsackievirus B3; settings: pre-incubation 30 min at 37 °C, thermal gradient 37-55 °C for 2 min; for Effect on heat inactivation of CVB3 (capsid stabilization): versus virus control
Procedure: CVB3 Nancy was pre-incubated with the compounds tested or an equal volume of MEM (virus control) for 30 min at +37 °C in sterile thin-walled 200 μL PCR-tubes (7 tubes per each treatment condition) in BioRad CFX PCR-machine. The thermal gradient of 37–55 °C for 2 min was then applied, followed by rapid cooling to 4 °C. Subsequently, the infectious virus load at each thermal condition for each compound tested was quantified by end-point dilution assay.

Row | Compound | CC50 (Vero cells) | CC50 at 24 h [1] | CC50 at 72 h [1] | EC50 (CVB3 Nancy [2]) | SI (selectivity index, ratio CC50/IC50) (CVB3 Nancy [2]) | IC50 [3] | SI (selectivity index, ratio CC50/IC50) [3] | Effect on heat inactivation of CVB3 (capsid stabilization) (CVB3 Nancy [4]) | melting point | Temperature to which infectivity of CVB3 was preserved (CVB3 Nancy [4]; concentrations greatly exceeding IC50)
1 | O=C(O)c1ccc(NS(=O)(=O)c2ccc(N3C(=O)c4ccccc4C3=O)cc2)cc1 [Compound 2a, 4-(4-(1,3-Dioxoisoindolin-2-yl)phenylsulfonamido)benzoic acid, reference compound] | exceeded the maximum concentration used in the assay | > 1180 µM | > 710 µM | < 8.76 µM | >81.1 | 5.54 ± 0.89 µM | >213 | heat inactivation of CVB3 changed to higher temperatures | – | –
2 | CCOC(=O)c1ccc(NS(=O)(=O)c2ccc(N3C(=O)c4ccccc4C3=O)cc2)cc1 [Compound 2b, Ethyl 4-(4-(1,3-dioxoisoindolin-2-yl)phenylsulfonamido)benzoate] | – | – | 40 ± 4.12 µM | > 444 µM | <1 | – | – | – | – | –
3 | NC(=O)c1ccc(NS(=O)(=O)c2ccc(N3C(=O)c4ccccc4C3=O)cc2)cc1 [Compound 2c, 4-(4-(1,3-Dioxoisoindolin-2-yl)phenylsulfonamido)benzamide] | – | – | 472 ± 38.2 µM | > 475 µM | <1 | – | – | – | 240 to 242 °C | –
4 | N#Cc1ccc(NS(=O)(=O)c2ccc(N3C(=O)c4ccccc4C3=O)cc2)cc1 [Compound 2d, N-(4-Cyanophenyl)-4-(1,3-dioxoisoindolin-2-yl)benzenesulfonamide] | – | – | 625 ± 57.5 µM | 744 ± 67.3 µM | <1 | – | – | – | 224 to 226 °C | –
5 | NS(=O)(=O)c1ccc(NS(=O)(=O)c2ccc(N3C(=O)c4ccccc4C3=O)cc2)cc1 [Compound 2e, 4-(1,3-Dioxoisoindolin-2-yl)-N-(4-sulfamoylphenyl)benzenesulfonamide] | – | – | 437 ± 35.1 µM | > 437 µM | <1 | – | – | – | 261 to 263 °C | –
6 | CC(=O)Nc1ccc(NS(=O)(=O)c2ccc(N3C(=O)c4ccccc4C3=O)cc2)cc1 [Compound 2f] | – | – | 181 ± 19.2 µM | > 689 µM | <1 | – | – | – | 220 to 222 °C | –
7 | O=C(O)C1CCN(S(=O)(=O)c2ccc(N3C(=O)c4ccccc4C3=O)cc2)CC1 [Compound 2g, 1-((4-(1,3-Dioxoisoindolin-2-yl)phenyl)sulfonyl)piperidine-4-carboxylic acid] | – | – | > 228 µM | 12.3 ± 2.07 µM | >18.5 | – | – | – | 207 to 210 °C | –
8 | NC(=O)C1CCN(S(=O)(=O)c2ccc(N3C(=O)c4ccccc4C3=O)cc2)CC1 [Compound 2h, 1-((4-(1,3-Dioxoisoindolin-2-yl)phenyl)sulfonyl)piperidine-4-carboxamide] | exceeded the maximum concentration used in the assay | – | > 726 µM | > 726 µM | >1 | – | – | – | 217 to 220 °C | –
9 | O=C(O)CCCNS(=O)(=O)c1ccc(N2C(=O)c3ccccc3C2=O)cc1 [Compound 2i, 4-(4-(1,3-Dioxoisoindolin-2-yl)phenylsulfonamido)butanoic acid] | – | 1260 ± 110 µM | 283 ± 31.1 µM | < 28.6 µM | >10 | 37.9 ± 1.08 µM | 33 | – | – | –
10 | CCOC(=O)c1ccc(NS(=O)(=O)c2ccc(NC(=O)c3ccccc3C(=O)O)cc2)cc1 [Compound 3, 2-((4-(N-(4-(Ethoxycarbonyl)phenyl)sulfamoyl)phenyl)carbamoyl)benzoic acid] | – | – | > 640 µM | > 427 µM | >1 | – | – | – | – | –
11 | O=C(O)c1ccc(NS(=O)(=O)c2ccc(N3C(=O)CCC3=O)cc2)cc1 [Compound 7a, 4-(4-(2,5-Dioxopyrrolidin-1-yl)phenylsulfonamido)benzoic acid] | – | > 1340 µM | 345 ± 32.2 µM | < 9.88 µM | >34.8 | 4.22 ± 0.35 µM | >316 | heat inactivation of CVB3 changed to higher temperatures | 243 to 245 °C (dec.) | 52.4 °C
12 | O=C(O)c1ccc(NS(=O)(=O)c2ccc(N3C(=O)C4CC=CCC4C3=O)cc2)cc1 (stereo not shown) [Compound 7b, 4-(4-(1,3-Dioxo-3a,4,7,7a-tetrahydro-1H-isoindol-2(3H)-yl)phenylsulfonamido)benzoic acid] | – | 933 ± 75.1 µM | 474 ± 38.5 µM | < 8.67 µM | >54.6 | 11.1 ± 0.16 µM | – | – | 250 to 252 °C | –
13 | O=C(O)c1ccc(NS(=O)(=O)c2ccc(N3C(=O)C4C5C=CC(C5)C4C3=O)cc2)cc1 (stereo not shown) [Compound 7c, 4-(4-(1,3-Dioxo-3a,4,7,7a-tetrahydro-1H-4,7-methanoisoindol-2(3H)-yl)phenylsulfonamido)benzoic acid] | exceeded the maximum concentration used in the assay | > 1140 µM | > 684 µM | < 8.44 µM | >81.1 | 19.6 ± 0.52 µM | >58 | – | 241 to 243 °C | –
14 | O=C(O)c1ccc(NS(=O)(=O)c2ccc(N3C(=O)C4C5CCC(C5)C4C3=O)cc2)cc1 (stereo not shown) [Compound 7d, 4-(4-(1,3-Dioxohexahydro-1H-4,7-methanoisoindol-2(3H)-yl)phenylsulfonamido)benzoic acid] | – | > 1140 µM | 681 ± 54.8 µM | < 8.39 µM | >81.1 | 19.6 ± 0.49 µM | >58 | – | 265 to 267 °C | –
15 | O=C(O)c1ccc(NS(=O)(=O)c2ccc(N3C(=O)c4cccc5cccc(c45)C3=O)cc2)cc1 [Compound 7e, 4-(4-(1,3-Dioxo-1H-benzo[de]isoquinolin-2(3H)-yl)phenylsulfonamido)benzoic acid] | – | – | 531 ± 48.4 µM | > 635 µM | <1 | – | – | – | 284 to 286 °C | –

Reference: paper PMC9694965, “Design of 4-Substituted Sulfonamidobenzoic Acid Derivatives Targeting Coxsackievirus B3” (Life, 2022)
